Source: ChEMBL document CHEMBL5365396, “Design, synthesis and anti-tumor evaluation of plinabulin derivatives as potential agents targeting β-tubulin” (Bioorg Med Chem Lett, 2023)
pIC50: −log10 of the molar value. The source made the active and inactive calls. The calls are words filed in the database; no cut-off is given here.

Legend:
BXPC-3 = test: Antiproliferative activity against human BXPC-3 cells assessed as cell growth inhibition by MTT assay; assay type: functional, cell-based
NCI-H460 = test: Antiproliferative activity against human NCI-H460 cells assessed as cell growth inhibition by MTT assay; assay type: functional, cell-based
HCT-116 [1] = test: Antiproliferative activity against human HCT-116 cells assessed as cell growth inhibition by MTT assay; assay type: functional, cell-based
[2] = biological target: T1, Tubulin beta (Homo sapiens) (UniProt P68371+Q9H4B7+Q13509+P04350+Q3ZCM7+P07437+Q13885+Q9BVA1+Q9BUF5+A6NNZ2); test: Induction of beta-tubulin depolymerization in human HCT-116 cells assessed as disruption of microtubule network by measuring abnormality in formation of spindle bodies at 10 nM measured after 24 hrs by DAPI staining based immunofluorescence assay; assay type: cell-based
[3] = biological target: T1, Tubulin beta (Homo sapiens); test: Induction of beta-tubulin depolymerization in human HCT-116 cells assessed as microtubule disruption at 10 nM incubated for 24 hrs by DAPI staining based immunofluorescence assay relative to control; assay type: cell-based
HCT-116 [4] = test: Induction of cell cycle arrest in human HCT-116 cells assessed as accumulation of cells at G1 phase at 5 nM by propidium iodide staining based flow cytometry analysis (reference value: 37.85 %); assay type: functional
HCT-116 [5] = test: Induction of cell cycle arrest in human HCT-116 cells assessed as accumulation of cells at G1 phase at 20 nM by propidium iodide staining based flow cytometry analysis (reference value: 37.85 %); assay type: functional
HCT-116 [6] = test: Induction of cell cycle arrest in human HCT-116 cells assessed as increase in accumulation at G2/M phase at 20 nM by propidium iodide staining based flow cytometry relative to control; assay type: functional
HCT-116 [7] = test: Induction of cell cycle arrest in human HCT-116 cells assessed as increase in accumulation at G2/M phase at 5 nM by propidium iodide staining based flow cytometry relative to control; assay type: functional
HCT-116 [8] = test: Induction of apoptosis in human HCT-116 cells assessed as late apoptotic cells at 10 nM by Annexin-V-FITC and PI based flow cytometry (reference value: 1.75 %); assay type: functional
HCT-116 [9] = test: Induction of cell cycle arrest in human HCT-116 cells assessed as accumulation of cells at G1 phase at 10 nM by propidium iodide staining based flow cytometry analysis (reference value: 37.85 %); assay type: functional
[10] = Induction of apoptosis in human HCT-116 cells assessed as early apoptotic cells at 5 nM by Annexin-V-FITC and PI staining based flow cytometry (reference value: 3.20 %); assay type: functional
HCT-116 [11] = test: Induction of cell cycle arrest in human HCT-116 cells assessed as accumulation of cells at S phase at 5 nM by propidium iodide staining based flow cytometry analysis (reference value: 39.4 %); assay type: functional
HCT-116 [12] = test: Induction of apoptosis in human HCT-116 cells assessed as increase in late apoptosis cells at 20 nM by Annexin-V-FITC and PI staining based flow cytometry analysis relative to control; assay type: functional
HCT-116 [13] = test: Induction of apoptosis in human HCT-116 cells assessed as late apoptotic cells at 5 nM by Annexin-V-FITC and PI staining based flow cytometry (reference value: 1.75 %); assay type: functional
HCT-116 [14] = test: Induction of cell cycle arrest in human HCT-116 cells assessed as accumulation of cells at S phase at 20 nM by propidium iodide staining based flow cytometry analysis (reference value: 39.4 %); assay type: functional
HCT-116 [15] = test: Induction of cell cycle arrest in human HCT-116 cells assessed as increase in accumulation at G2/M phase at 10 nM by propidium iodide staining based flow cytometry relative to control; assay type: functional
HCT-116 [16] = test: Induction of cell cycle arrest in human HCT-116 cells assessed as increase in accumulation at G2/M phase by propidium iodide staining based flow cytometry; assay type: functional; details: dose 5-20 nM
HCT-116 [17] = test: Induction of apoptosis in human HCT-116 cells assessed as increase in early apoptosis cells at 20 nM by Annexin-V-FITC and PI staining based flow cytometry analysis relative to control; assay type: functional
HCT-116 [18] = test: Induction of cell cycle arrest in human HCT-116 cells assessed as accumulation of cells at S phase at 10 nM by propidium iodide staining based flow cytometry analysis (reference value: 39.4 %); assay type: functional
HCT-116 [19] = test: Induction of apoptosis in human HCT-116 cells assessed as early apoptotic cells at 10 nM by Annexin-V-FITC and PI staining based flow cytometry (reference value: 3.20 %); assay type: functional

Compound	pIC50 (BXPC-3)	pIC50 (NCI-H460)	pIC50 (HCT-116 [1])	also measured
CC(C)(C)c1[nH]cnc1/C=c1\[nH]c(=O)/c(=C/c2c[nH]c3ccccc23)[nH]c1=O	7.86	7.08	8.19	–
CC(C)(C)c1[nH]cnc1/C=c1\[nH]c(=O)/c(=C/c2cc3ccccc3[nH]2)[nH]c1=O	5.56	5.86	5.48	–
CC(=O)Nc1cccc(/C=c2\[nH]c(=O)/c(=C/c3nc[nH]c3C(C)(C)C)[nH]c2=O)c1	6.27	6.18	6.62	–
CC(C)(C)c1[nH]cnc1/C=c1\[nH]c(=O)/c(=C/c2ccc3[nH]ccc3c2)[nH]c1=O	8.17	6.65	8.23	–
CC(C)(C)c1[nH]cnc1/C=c1\[nH]c(=O)/c(=C/c2ccccc2)[nH]c1=O [PLINABULIN]	7.74	7.51	8.06	Activity [2]: Active; Activity [3]: 67%
CC(C)(C)c1[nH]cnc1/C=c1\[nH]c(=O)/c(=C/c2ccc3cc[nH]c3c2)[nH]c1=O	5.42	5.74	5.54	–
CC(C)(C)c1[nH]cnc1/C=c1\[nH]c(=O)/c(=C/c2cccc(NC(=O)c3cccnc3)c2)[nH]c1=O	5.80	5.31	5.97	–
CC(C)(C)c1[nH]cnc1/C=c1\[nH]c(=O)/c(=C/c2cccc(NC(=O)c3cc4ccccc4[nH]3)c2)[nH]c1=O	5.75	< 5.30	5.58	–
CC(C)(C)c1[nH]cnc1/C=c1\[nH]c(=O)/c(=C/c2cccc(NC(=O)c3ccc(F)cc3)c2)[nH]c1=O	6.23	6.57	6.91	–
CC(C)(C)c1[nH]cnc1/C=c1\[nH]c(=O)/c(=C/c2cccc(NC(=O)C3CCCC3)c2)[nH]c1=O	5.50	6.13	6.19	–
COc1ccc(C(=O)Nc2cccc(/C=c3\[nH]c(=O)/c(=C/c4nc[nH]c4C(C)(C)C)[nH]c3=O)c2)cc1	5.82	5.93	5.98	–
CC(C)(C)c1[nH]cnc1/C=c1\[nH]c(=O)/c(=C/c2cccc(NC(=O)C3CCC3)c2)[nH]c1=O	6.23	5.83	6.05	–
CC(C)(C)c1[nH]cnc1/C=c1\[nH]c(=O)/c(=C/c2cccc(NC(=O)c3cccc(C(=O)c4ccccc4)c3)c2)[nH]c1=O	5.35	< 5.30	< 5.30	–
CCC(=O)Nc1cccc(/C=c2\[nH]c(=O)/c(=C/c3nc[nH]c3C(C)(C)C)[nH]c2=O)c1	6.22	5.64	6.61	–
CC(C)(C)c1[nH]cnc1/C=c1\[nH]c(=O)/c(=C/c2cccc(N)c2)[nH]c1=O	7.10	6.78	7.82	–
CC(C)(C)c1[nH]cnc1/C=c1\[nH]c(=O)/c(=C/c2cccc(NC(=O)c3ccccc3)c2)[nH]c1=O	6.40	6.03	7.32	–
CC(C)(C)c1[nH]cnc1/C=c1\[nH]c(=O)/c(=C/c2cccc(NC(=O)C3CC3)c2)[nH]c1=O	5.80	5.63	6.14	–
Cc1ccc(F)cc1C(=O)Nc1cccc(/C=c2\[nH]c(=O)/c(=C/c3nc[nH]c3C(C)(C)C)[nH]c2=O)c1	5.80	5.88	6.44	–
CC(C)C(=O)Nc1cccc(/C=c2\[nH]c(=O)/c(=C/c3nc[nH]c3C(C)(C)C)[nH]c2=O)c1	5.84	6.01	6.22	–
CC(C)(C)c1[nH]cnc1/C=c1\[nH]c(=O)/c(=C/c2cccc3[nH]ccc23)[nH]c1=O	7.78	7.68	8.14	Activity [2]: Active; Activity (HCT-116 [4]): 33.6%; Activity (HCT-116 [5]): 5.69%; fold change (FC) (HCT-116 [6]): 2.7; fold change (FC) (HCT-116 [7]): 1.1; Activity (HCT-116 [8]): 2.55%; Activity (HCT-116 [9]): 32.3%; Activity [10]: 4.9%; Activity (HCT-116 [11]): 41.45%; fold change (FC) (HCT-116 [12]): 3.9; Activity [3]: 77%; Activity (HCT-116 [13]): 2%; Activity (HCT-116 [14]): 41.7%; fold change (FC) (HCT-116 [15]): 1.4; Activity (HCT-116 [16]): Dose-Dependent Effect; fold change (FC) (HCT-116 [17]): 6.4; Activity (HCT-116 [18]): 37.05%; Activity (HCT-116 [19]): 6.15%
Cc1ccc(C(=O)Nc2cccc(/C=c3\[nH]c(=O)/c(=C/c4nc[nH]c4C(C)(C)C)[nH]c3=O)c2)c(C)c1	5.59	5.89	6.30	–
CC(C)(C)c1[nH]cnc1/C=c1\[nH]c(=O)/c(=C/c2cccc(NC(=O)CN)c2)[nH]c1=O	6.56	6.07	6.67	–
CC(C)(C)c1[nH]cnc1/C=c1\[nH]c(=O)/c(=C/c2cccc(NC(=O)c3ccccn3)c2)[nH]c1=O	6.28	5.41	6.65	–
CC(C)(C)c1[nH]cnc1/C=c1\[nH]c(=O)/c(=C/c2cccc3cc[nH]c23)[nH]c1=O	8.02	6.54	6.41	–
CC(C)(C)c1[nH]cnc1/C=c1\[nH]c(=O)/c(=C/c2cccc(NC(=O)C3CCCN3)c2)[nH]c1=O (configuration not stated)	7.64	6.52	7.14	–
CC(C)(C)C(=O)Nc1cccc(/C=c2\[nH]c(=O)/c(=C/c3nc[nH]c3C(C)(C)C)[nH]c2=O)c1	5.72	5.50	5.54	–
CC(C)[C@H](CN)C(=O)Nc1cccc(/C=c2\[nH]c(=O)/c(=C/c3nc[nH]c3C(C)(C)C)[nH]c2=O)c1 (stereo in doubt)	7.50	5.84	7.50	–
CC(C)(C)c1[nH]cnc1/C=c1\[nH]c(=O)/c(=C/c2cccc(NC(=O)C3CCCCC3)c2)[nH]c1=O	5.99	6.21	5.88	–
CC(C)(C)c1[nH]cnc1/C=c1\[nH]c(=O)/c(=C/c2cccc(NC(=O)Cc3ccccc3)c2)[nH]c1=O	5.77	5.96	6.32	–
